We go through one molecule from US20110233526A1, “PERYLENE DIIMIDE DERIVATIVE AND ORGANIC SEMICONDUCTOR ELEMENT USING THE SAME MATERIAL” (priority 2010, published 2011).

Each structure is given as a SMILES string.

Data set [1] is described as follows: Electron mobility of TC-PDA-F in an OTFT versus time of exposure to air (air-stability, FIG. 3). Conditions: OTFT thin film. Type of data set: physicochemical. The text has this:
Refer to FIG. 1 and FIG. 2 for diagrams respectively schematically showing a BG-TC (Bottom Gate-Top Contact) OTFT and a BG-BC (Bottom Gate-Bottom Contact) OTFT. The BG-TC OTFT 10 has a substrate 11, a gate 12 formed on the substrate 11, a dielectric layer 13 formed on the gate 12, a source 14 and a drain 15 formed over the dielectric layer 13, and an organic semiconductor layer 16 for conducting the source 14 and the drain 15. The BG-BC OTFT 20 has a substrate 21, a gate 22 formed on the substrate 21, a dielectric layer 23 formed on the gate 22, a source 24 and a drain 25 formed on the dielectric layer 23, and an organic semiconductor layer 26 for conducting the source 24 and the drain 25. In one embodiment, the organic semiconductor layers 16 and 26 are fabricated with a soluble process in the atmospheric environment. In one embodiment, the dielectric layers 13 and 23 respectively formed on the substrates 11 and 21 also are fabricated with a soluble process. For example, a liquid-phase deposited silicon dioxide (LPD-SiO2) is formed on a silicon substrate 11 or 21 to function as the dielectric layer 13 or 23, whereby the electron mobility thereof can reach 0.26 cm^2V^−1s^−1. Refer to FIG. 3 for a diagram showing the relationship of the electron mobility of TC-PDA-F and the time of exposure to air.

Data set [2] in a line: Solubility in organic solution. Type of data set: physicochemical. Conditions: organic solution (such as toluene).

Take `O=C1c2cc(Cl)c3c4c(Cl)cc5c6c(cc(Cl)c(c7c(Cl)cc(c2c37)C(=O)N1Cc1cc(F)cc(C(F)(F)F)c1)c64)C(=O)N(Cc1cc(F)cc(C(F)(F)F)c1)C5=O` [TC-PDA-F]: the electron mobility in data set [1] (after exposure to air for two months (FIG. 3)) is recorded as 1.6×10^−5 cm^2V^−1s^−1; in data set [1] (before exposure to air (FIG. 3)), 5.34×10^−5 cm^2V^−1s^−1. In addition, the “solubility in organic solution” value in data set [2] is given as “can be dissolved”.
